What was measured:
virus H1N1 A/Weiss/43 = assay: microbe, parasite or virus in culture; type: cell-based; conditions: Influenza A virus, H1N1, 120 h; MDCK cells, CPE, 5 days, CCK-8; read-out: EC50, inhibitory activity against influenza virus (A/Weiss/43(H1N1))
in vivo = conditions: SD, rat
Protocol: The compounds disclosed herein were administered in form of a saline solution containing 5% DMSO, 5% Kolliphor HS 15 and 90% Saline. For intravenous administration (iv), the animals were administered with a dose of 1 mg/kg, and blood samples (0.3 mL) were collected at the time points of 0.083, 0.25, 0.5, 1.0, 2.0, 5.0, 7.0 and 24 h after drug administration, then each blood sample was processed to separate plasma by centrifugation at 3000 rpm or 4000 rpm for 10 minutes. For oral administration (po), the animals were administered with a dose of 5 mg/kg, and blood samples (0.3 mL) were collected at the time points of 0.25, 0.5, 1.0, 2.0, 5.0, 7.0 and 24 h after drug administration, then each blood sample was processed to separate plasma by centrifugation at 3000 rpm or 4000 rpm for 10 minutes. Plasma samples were collected and stored at −20° C. or −70° C. until LC/MS/MS analysis.

In the case of `O=C(O)[C@H]1C2CCC(CC2)[C@@H]1Nc1cc(-n2cccc2)nc(-c2c[nH]c3ncc(Cl)nc23)n1` [Example 55, (2S,3S)-3-((2-(2-chloro-5H-pyrrolo[2,3-b]pyrazin-7-yl)-6-(1H-pyrrol-1-yl)pyrimidin-4-yl)amino)bicyclo[2.2.2]octane-2-carboxylic Acid], the EC50 (virus H1N1 A/Weiss/43) is reported as 680 pM.
Work on `O=C(O)[C@H]1C2CCC(CC2)[C@@H]1Nc1nc(-c2c[nH]c3ncc(Cl)nc23)nc2c1ccn2C(CF)CF` [Example 65, (2S,3S)-3-((2-(2-chloro-5H-pyrrolo[2,3-b]pyrazin-7-yl)-7-(1,3-difluoropropan-2-yl)-7H-pyrrolo[2,3-d]pyrimidin-4-yl)amino)bicyclo[2.2.2]octane-2-carboxylic Acid] yielded an AUC(0-inf) (in vivo; iv, 1 mg/kg) of 2390 ng·h/mL, an AUC(0-t) (in vivo; iv, 1 mg/kg) of 2370 ng·h/mL and a clearance (in vivo; iv, 1 mg/kg) of 121 mL/min/kg. For the same compound, the AUC(0-inf) (in vivo; po, 5 mg/kg) was 6170 ng·h/mL and the AUC(0-t) (in vivo; po, 5 mg/kg) was 6150 ng·h/mL.
In the case of `O=C(O)C1C2CCC(CC2)C1Nc1nc(-c2c[nH]c3ncc(Cl)nc23)nc(-c2cc3ccccc3o2)c1F` (racemic) [Example 6, (+/−)-trans-3-((6-(benzofuran-2-yl)-2-(2-chloro-5H-pyrrolo[2,3-b]pyrazin-7-yl)-5-fluoropyrimidin-4-yl)amino)bicyclo[2.2.2]octane-2-carboxylic Acid], the EC50 (virus H1N1 A/Weiss/43) is reported as 398 pM.
Work on `O=C(O)C1C2CCC(CC2)C1Nc1cc(-c2ccccc2)nc(-c2c[nH]c3ncc(Cl)nc23)n1` (racemic) [Example 12, (+/−)-trans-3-((2-(2-chloro-5H-pyrrolo[2,3-b]pyrazin-7-yl)-6-phenylpyrimidin-4-yl)amino)bicyclo[2.2.2]octane-2-carboxylic Acid] yielded an EC50 (virus H1N1 A/Weiss/43) of 2540 pM.
Work on `O=C(O)C1C2CCC(CC2)C1Nc1nc(-c2c[nH]c3ncc(Cl)nc23)nc(-c2ccccc2)c1F` (racemic) [Example 4, (+/−)-trans-3-((2-(2-chloro-5H-pyrrolo[2,3-b]pyrazin-7-yl)-5-fluoro-6-phenylpyrimidin-4-yl)amino)bicyclo[2.2.2]octane-2-carboxylic Acid] yielded an EC50 (virus H1N1 A/Weiss/43) of 116 pM.
With `Cc1ccc(-c2nc(-c3c[nH]c4ncc(Cl)nc34)nc(N[C@H]3C4CCC(CC4)[C@@H]3C(=O)O)c2F)s1` [Example 33, (2S,3S)-3-((2-(2-chloro-5H-pyrrolo[2,3-b]pyrazin-7-yl)-5-fluoro-6-(5-methylthiophen-2-yl)pyrimidin-4-yl)amino)bicyclo[2.2.2]octane-2-carboxylic Acid] the EC50 (virus H1N1 A/Weiss/43) was 10 pM.
Work on `O=C(O)C1C2CCC(CC2)C1Nc1nc(-c2c[nH]c3ncc(Cl)nc23)nc(-c2ccco2)c1F` (racemic) [Example 3, (+/−)-trans-3-((2-(2-chloro-5H-pyrrolo[2,3-b]pyrazin-7-yl)-5-fluoro-6-(furan-2-yl)pyrimidin-4-yl)amino)bicyclo[2.2.2]octane-2-carboxylic Acid] yielded an EC50 (virus H1N1 A/Weiss/43) of 672 pM.
With `O=C(O)[C@H]1C2CCC(CC2)[C@@H]1Nc1cc(-c2cc3ccccc3s2)nc(-c2c[nH]c3ncc(Cl)nc23)n1` [Example 15, (2S,3S)-3-((6-(benzo[b]thiophen-2-yl)-2-(2-chloro-5H-pyrrolo[2,3-b]pyrazin-7-yl)pyrimidin-4-yl)amino)bicyclo[2.2.2]octane-2-carboxylic Acid] the EC50 (virus H1N1 A/Weiss/43) was 760 pM.
Compound `O=C(O)[C@H]1C2CCC(CC2)[C@@H]1Nc1nc(-c2c[nH]c3ncc(Cl)nc23)nc(-c2cc3ccccc3s2)c1F` [Example 7a, (2S,3S)-3-((6-(benzo[b]thiophen-2-yl)-2-(2-chloro-5H-pyrrolo[2,3-b]pyrazin-7-yl)-5-fluoropyrimidin-4-yl)amino)bicyclo[2.2.2]octane-2-carboxylic Acid] has an AUC(0-inf) (in vivo; iv, 1 mg/kg) of 3260 ng·h/mL, an AUC(0-t) (in vivo; iv, 1 mg/kg) of 3220 ng·h/mL and a clearance (in vivo; iv, 1 mg/kg) of 85.2 mL/min/kg. The AUC(0-inf) (in vivo; po, 5 mg/kg) was 9950 ng·h/mL and the AUC(0-t) (in vivo; po, 5 mg/kg) was 9840 ng·h/mL.
Compound `O=C(O)[C@H]1C2CCC(CC2)[C@@H]1Nc1nc(-c2c[nH]c3nc(Cl)cnc23)nc(-c2cccs2)c1F` [Example 53, (2S,3S)-3-((2-(3-chloro-5H-pyrrolo[2,3-b]pyrazin-7-yl)-5-fluoro-6-(thiophen-2-yl)pyrimidin-4-yl)amino)bicyclo[2.2.2]octane-2-carboxylic Acid] has an AUC(0-inf) (in vivo; iv, 1 mg/kg) of 3740 ng·h/mL, an AUC(0-t) (in vivo; iv, 1 mg/kg) of 3670 ng·h/mL and a clearance (in vivo; iv, 1 mg/kg) of 74.2 mL/min/kg. The AUC(0-inf) (in vivo; po, 5 mg/kg) was 18000 ng·h/mL and the AUC(0-t) (in vivo; po, 5 mg/kg) was 17700 ng·h/mL.

From patent US10987354B2, “Inhibitors of influenza virus replication and uses thereof” (SUNSHINE LAKE PHARMA CO., LTD., priority 2016, dated 2021)
